In patent US12441704B2, “Compounds active towards nuclear receptors” (NUEVOLUTION A/S, priority 2019, dated 2025):

Each molecule was assayed against T1, RORγ ligand-binding domain fused to Gal4 (Homo sapiens, UniProt P51449) (assay: RORγ Reporter Assay (Gal4)). Details: HEK293 cells co-transfected with RORγ LBD-Gal4 and luciferase reporter; 24 h incubation; absolute EC50; read-out: EC50.
T1 construct: Gal4 (galactose-responsive transcription factor); expressed in transfected cells; host or cells: HEK293
T1 sequence (P51449 269-508 limits assumed): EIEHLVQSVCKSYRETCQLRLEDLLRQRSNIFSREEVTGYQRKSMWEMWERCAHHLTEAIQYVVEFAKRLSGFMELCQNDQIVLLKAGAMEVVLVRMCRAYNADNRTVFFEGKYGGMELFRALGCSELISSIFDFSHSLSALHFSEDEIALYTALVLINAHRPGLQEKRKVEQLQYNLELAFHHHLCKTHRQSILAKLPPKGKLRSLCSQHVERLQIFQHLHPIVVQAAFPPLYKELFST
Type: cell-based
Protocol: The HEK293 cell line is co-transfected transiently with two plasmids, one with the RORγ ligand-binding domain fused to galactose-responsive transcription factor (Gal4), and the other with the luciferase reporter gene and Gal binding sites (UAS). This construction allows to determine the RORγ activity in a cellular system through the measurement of luminescence.
A suspension of RORγ reporter cells was dispensed into plates and cultured 2 h at 37° C. and 5% CO2. Media formulation consisted in DMEM/F-12 medium (Gibco) supplemented with 10% heat inactivated FBS (Sigma-Aldrich), non-essential aminoacids (Sigma-Aldrich), 2 mM Glutamax (Gibco) and 100 U/mL penicillin (Sigma-Aldrich). Dose-response curves with compounds were prepared in 100% DMSO and further diluted 100-fold in culture medium. Compound solutions were added to the plate containing cells (final DMSO concentration of 0.1%) and incubated for 24 h at 37° C. and 5% CO2. Luciferase detection reagent was added to each well, and relative light units (RLUs) were quantified from each assay well using a plate reading luminometer.
Values of average RLU±S.D. were computed for all treatment sets, followed by the calculations of percent-reduction of RORγ activity in response to respective test compound. The following formula was used: activity=100*[1−[x test compound/average vehicle] where the theoretical minimum reduction (0% reduction).
CCN(Cc1ccc(-c2cnn(C)c2)cc1)c1ncnc(NC[C@@H]2CCN(CC(N)=O)C[C@H]2O)c1F (racemic) [Example A7-72, rac-2-((3R,4R)-4-(((6-(ethyl(4-(1-methyl-1H-pyrazol-4-yl)benzyl)amino)-5-fluoropyrimidin-4-yl)amino)methyl)-3-hydroxypiperidin-1-yl)acetamide] showed an EC50 of 52 nM. Work on CN(Cc1ccc(C(F)(F)F)cc1)c1ncnc(NC[C@H]2CCN(CC(N)=O)C[C@@H]2O)c1F (racemic) [Example A7-20, rac-2-((3R,4R)-4-(((5-fluoro-6-(methyl(4-(trifluoromethyl)benzyl)amino)pyrimidin-4-yl)amino)methyl)-3-hydroxypiperidin-1-yl)acetamide] yielded an EC50 of 26 nM. For NC(=O)CN1CCC(CNc2ncnc(N(Cc3ccc(C(F)(F)F)cc3)C3CC3)c2F)C(C(F)(F)F)C1 (single isomer, unassigned) [Example A7-07-2, 2-(4-(((6-(cyclopropyl(4-(trifluoromethyl)benzyl)amino)-5-fluoropyrimidin-4-yl)amino)methyl)-3-(trifluoromethyl)piperidin-1-yl)acetamide], the EC50 was 93 nM. Molecule Cn1c(=O)oc2cc(CN(c3ncnc(NCC4(F)CCN(CC(N)=O)CC4)c3F)C3CC3)ccc21 [Example A7-13] has an EC50 of 230 nM. CCN(Cc1ccc(C(F)(F)CO)cc1)c1ncnc(NC[C@@H]2CCN(CC(N)=O)C[C@H]2O)c1F (racemic) [Example A7-79, rac-2-((3R,4R)-4-(((6-((4-(1,1-difluoro-2-hydroxyethyl)benzyl)(ethyl)amino)-5-fluoropyrimidin-4-yl)amino)methyl)-3-hydroxypiperidin-1-yl)acetamide] gave an EC50 of 164 nM. Cc1cc(CN(c2ncnc(NCC3CCN(CC(N)=O)CC3)c2F)C2CC2)cc(C)c1Cl [Example A7-53, 2-(4-(((6-((4-chloro-3,5-dimethylbenzyl)(cyclopropyl)amino)-5-fluoropyrimidin-4-yl)amino)methyl)piperidin-1-yl)acetamide] was tested, and the EC50 was > 1000 nM. Work on CCN(Cc1ccc(C(F)(F)F)cc1)c1ncnc(NC[C@@H]2CCN(C(CCO)C(N)=O)C[C@H]2O)c1F (relative stereo) [Example A7-67, rel-2-((3R,4R)-4-(((6-(ethyl(4-(trifluoromethyl)benzyl)amino)-5-fluoropyrimidin-4-yl)amino)methyl)-3-hydroxypiperidin-1-yl)-4-hydroxybutanamide] yielded an EC50 of 43 nM. NC(=O)CN1CC[C@@H](CNc2ncnc(N(Cc3ccc(C(F)(F)F)cc3)C3CCC3)c2F)[C@H](O)C1 (single isomer, unassigned) [Example A7-16-1] showed an EC50 of 25 nM. For NC(=O)CN1CCC(CNc2ncnc(N(Cc3ccc(C(F)(F)F)cc3)C3CC3)c2F)(c2ncc[nH]2)CC1 [Example A7-84, 2-(4-(((6-(Cyclopropyl(4-(trifluoromethyl)benzyl)amino)-5-fluoropyrimidin-4-yl)amino)methyl)-4-(1H-imidazol-2-yl)piperidin-1-yl)acetamide], the EC50 was 301 nM. In the case of NC(=O)CN1CC[C@H](CNc2ncnc(N(Cc3ccc(C(F)(F)F)cn3)C3CC3)c2F)[C@@H](F)C1 (relative stereo) [Example A7-04-2, rel-2-((3R,4R)-4-(((6-(cyclopropyl((5-(trifluoromethyl)pyridin-2-yl)methyl)amino)-5-fluoropyrimidin-4-yl)amino)methyl)-3-fluoropiperidin-1-yl)acetamide], the EC50 is reported as 89 nM. NC(=O)CN1CC[C@@H](CNc2ncnc(N(Cc3ccc(C(F)(F)F)cc3)C3CC3)c2F)[C@@H](O)C1 (racemic) [Example A7-49, rac-2-((3R,4S)-4-(((6-(cyclopropyl(4-(trifluoromethyl)benzyl)amino)-5-fluoropyrimidin-4-yl)amino)methyl)-3-hydroxypiperidin-1-yl)acetamide] showed an EC50 of 168 nM.

Same assay, conditions: compounds of the present disclosure; source: Table 2 herein; read-out: Gal4 assay EC50
With NC(=O)CN1CC[C@H](CNc2ncnc(N(Cc3ccc(C(F)(F)F)cc3)C3CC3)c2F)[C@@H](F)C1 (single isomer, unassigned) [Example A7-05-1] the EC50 was < 100 nM.
